In US10961200B2, “Small molecule inhibitors of lactate dehydrogenase and methods of use thereof” (THE UNITED STATES OF AMERICA, AS REPRESENTED BY THE …, priority 2014, dated 2021):

Molecular target: Human LDHA (Homo sapiens (Human), UniProt P00338)
Assay: human LDHA primary biochemical assay (resazurin/diaphorase coupled, fluorescence)
Settings: LDHA inhibitory activity, assay of Example 1; activity level classes
Description: Test compounds were placed in a Greiner Bio-One (Monroe, N.C.) 1536-well black solid bottom assay plate. 200 millimolar (mM) Tris HCl, pH 7.4, 100 micromolar […] EDTA and 0.01% TWEEN-20™, final concentration, was used as the assay buffer. The LDHA reagent was 2 nanomolar (nM) Human LDHA (Meridian Life Science, Inc., Memphis, Tenn.), final concentration, in assay buffer.

`Nc1c(Cc2ccc(S(N)(=O)=O)cc2)c(-c2ccccc2)nn1-c1cc(C(=O)O)ccn1` [Compound 145, 2-(5-amino-3-phenyl-4-(4-sulfamoylbenzyl)-1H-pyrazol-1-yl)isonicotinic acid] and `Nc1c(Cc2ccc(S(N)(=O)=O)cc2)c(-c2ccccc2)nn1-c1nccc(O)n1` [Compound 152, 4-((5-amino-1-(4-hydroxypyrimidin-2-yl)-3-phenyl-1H-pyrazol-4-yl)methyl)benzenesulfonamide] cannot be ordered by IC50: greater than 57 µM for the first, greater than 57 µM for the second.

Going from `Nc1c(Cc2ccc(S(N)(=O)=O)cc2)c(-c2ccccc2)nn1C(=O)c1cccc2cc[nH]c12` [Compound 150, 4-((5-ammo-1-(1H-indole-7-carbonyl)-3-phenyl-1H-pyrazol-4-yl)methyl)benzenesulfonamide] to `C=Cc1c(Cc2ccc(S(N)(=O)=O)cc2)c(-c2ccccc2)nn1-c1nc(C(=O)O)cs1` [Compound 167, 2-(3-phenyl-4-(4-sulfamoylbenzyl)-5-vinyl-1H-pyrazol-1-yl)thiazole-4-carboxylic acid], the IC50 falls from greater than 57 µM to less than 0.1 µM. The second is the more potent here.

`NS(=O)(=O)c1ccc(Nc2c[nH]nc2-c2cccc(-c3ccccc3)c2)cc1` [Compound 161] and `CCOC(=O)c1csc(-n2nc(-c3cccc(-c4ccccc4)c3)c(Cc3ccc(S(N)(=O)=O)cc3)c2C2CC2)n1` [Compound 181, ethyl 2-(3-([1,1′-biphenyl]-3-yl)-5-cyclopropyl-4-(4-sulfamoylbenzyl)-1H-pyrazol-1-yl)thiazole-4-carboxylate] cannot be ordered by IC50: greater than 57 µM for the first, greater than 57 µM for the second.

`CCOC(=O)c1csc(-n2nc(C3CC3)c(Oc3ccc(S(N)(=O)=O)cc3)c2-c2ccccc2)n1` [Compound 163, ethyl 2-(3-cyclopropyl-5-phenyl-4-(4-sulfamoylphenoxy)-1H-pyrazol-1-yl)thiazole-4-carboxylate] and `CCOC(=O)c1csc(-n2nc(C3CCCC3)c(Oc3ccc(S(N)(=O)=O)cc3)c2-c2ccccc2)n1` [Compound 168, ethyl 2-(3-cyclopentyl-5-phenyl-4-(4-sulfamoylphenoxy)-1H-pyrazol-1-yl)thiazole-4-carboxylate] cannot be ordered by IC50: greater than 57 µM for the first, greater than 57 µM for the second.

Going from `NS(=O)(=O)c1ccc(Oc2c(-c3ccccc3)nn(-c3nc(C(=O)O)cs3)c2C2CC2)cc1` [Compound 166, 2-(5-cyclopropyl-3-phenyl-4-(4-sulfamoylphenoxy)-1H-pyrazol-1-yl)thiazole-4-carboxylic acid] to `CCOC(=O)c1csc(-n2nc(-c3ccccc3)c(Oc3ccc(S(N)(=O)=O)cc3)c2C2CCCC2)n1` [Compound 169, ethyl 2-(5-cyclopentyl-3-phenyl-4-(4-sulfamoylphenoxy)-1H-pyrazol-1-yl)thiazole-4-carboxylate], the IC50 rises from less than 0.1 µM to greater than 57 µM.

First: NS(=O)(=O)c1ccc(Oc2c(C3CCCC3)nn(-c3nc(C(=O)O)cs3)c2-c2ccccc2)cc1 [Compound 174, 2-(3-cyclopentyl-5-phenyl-4-(4-sulfamoylphenoxy)-1H-pyrazol-1-yl)thiazole-4-carboxylic acid]
Second: CCOC(=O)c1csc(-n2nc(C3CC3)c(Cc3ccc(S(N)(=O)=O)cc3)c2-c2cccc(-c3ccccc3)c2)n1 [Compound 180, ethyl 2-(5-([1,1′-biphenyl]-3-yl)-3-cyclopropyl-4-(4-sulfamoylbenzyl)-1H-pyrazol-1-yl)thiazole-4-carboxylate]
The IC50 of the first is lower: 1 to 57 µM for the first, greater than 57 µM for the second. The first is the more potent here.

Same assay, conditions: read-out: Inhibitory activity IC50

Compared with `Nc1c(Cc2ccc(S(N)(=O)=O)cc2)c(-c2ccccc2)nn1-c1cccc(C(=O)O)n1` [Compound 144, 6-(5-amino-3-phenyl-4-(4-sulfamoylbenzyl)-1H-pyrazol-1-yl)picolinic acid], `Nc1c(Cc2ccc(S(N)(=O)=O)cc2)c(-c2ccccc2)nn1-c1nc(C(=O)O)co1` [Compound 153, 2-(5-amino-3-phenyl-4-(4-sulfamoylbenzyl)-1H-pyrazol-1-yl)oxazole-4-carboxylic acid] is lower in IC50: 1 to 57 µM for the first, 0.1 to 1 µM for the second.

`Cc1oc(=O)oc1COC(=O)c1csc(-n2cc(Cc3ccc(S(N)(=O)=O)cc3)c(-c3ccccc3)n2)n1` [Compound 149, (5-methyl-2-oxo-1,3-dioxol-4-yl)methyl 2-(3-phenyl-4-(4-sulfamoylbenzyl)-1H-pyrazol-1-yl)thiazole-4-carboxylate] and `NS(=O)(=O)c1ccc(Cc2cn(-c3nc(C(O)C(F)(F)F)cs3)nc2-c2ccccc2)cc1` (stereo not drawn) [Compound 154, 4-((3-phenyl-1-(4-(2,2,2-trifluoro-1-hydroxyethyl)thiazol-2-yl)-1H-pyrazol-4-yl)methyl)benzenesulfonamide] fall in the same range of IC50: 0.1 to 1 µM for the first, 0.1 to 1 µM for the second.

`CCOC(=O)c1coc(-n2nc(-c3ccccc3)c(Cc3ccc(S(N)(=O)=O)cc3)c2N)n1` [Compound 151, ethyl 2-(5-amino-3-phenyl-4-(4-sulfamoylbenzyl)-1H-pyrazol-1-yl)oxazole-4-carboxylate] and `NS(=O)(=O)c1ccc(Cc2c(-c3ccccc3)nn(-c3nc(C(=O)O)cs3)c2C2CO2)cc1` (stereo not drawn) [Compound 178, 2-(5-(oxiran-2-yl)-3-phenyl-4-(4-sulfamoylbenzyl)-1H-pyrazol-1-yl)thiazole-4-carboxylic acid] fall in the same range of IC50: 1 to 57 µM for the first, 1 to 57 µM for the second.

First: NS(=O)(=O)c1ccc(Cc2c(-c3ccccc3)nn(-c3nc(C(=O)O)cs3)c2-c2ccccc2)cc1 [Compound 155, 2-(3,5-diphenyl-4-(4-sulfamoylbenzyl)-1H-pyrazol-1-yl)thiazole-4-carboxylic acid]
Second: NS(=O)(=O)c1ccc(Cc2c(-c3ccccc3)nn(-c3nc(C(=O)O)cs3)c2-c2ccncc2)cc1 [Compound 156, 2-(3-phenyl-5-(pyridin-4-yl)-4-(4-sulfamoylbenzyl)-1H-pyrazol-1-yl)thiazole-4-carboxylic acid]
The IC50 of the first is lower: less than 0.1 µM for the first, 1 to 57 µM for the second.

Compared with `CC(C)c1nn(-c2nc(C(=O)O)cs2)c(-c2ccccc2)c1Cc1ccc(S(N)(=O)=O)cc1` [Compound 158, 2-(3-isopropyl-5-phenyl-4-(4-sulfamoylbenzyl)-1H-pyrazol-1-yl)thiazole-4-carboxylic acid], `CC(C)c1c(Cc2ccc(S(N)(=O)=O)cc2)c(-c2ccccc2)nn1-c1nc(C(=O)O)cs1` [Compound 159, 2-(5-isopropyl-3-phenyl-4-(4-sulfamoylbenzyl)-1H-pyrazol-1-yl)thiazole-4-carboxylic acid] is lower in IC50: 1 to 57 µM for the first, 0.1 to 1 µM for the second. The second is the more potent here.

`CCOC(=O)c1csc(-n2cc(Nc3ccc(S(N)(=O)=O)cc3)c(-c3cccc(-c4ccccc4)c3)n2)n1` [Compound 162, ethyl 2-(3-([1,1′-biphenyl]-3-yl)-4-((4-sulfamoylphenyl)amino)-1H-pyrazol-1-yl)thiazole-4-carboxylate] and `NS(=O)(=O)c1ccc(Cc2c(C3CC3)nn(-c3nc(C(=O)O)cs3)c2-c2cccc(-c3ccccc3)c2)cc1` [Compound 184, 2-(5-([1,1′-biphenyl]-3-yl)-3-cyclopropyl-4-(4-sulfamoylbenzyl)-1H-pyrazol-1-yl)thiazole-4-carboxylic acid] fall in the same range of IC50: 1 to 57 µM for the first, 1 to 57 µM for the second.

First: CCOC(=O)c1csc(-n2nc(-c3ccccc3)c(Oc3ccc(S(N)(=O)=O)cc3)c2C2CC2)n1 [Compound 164, ethyl 2-(5-cyclopropyl-3-phenyl-4-(4-sulfamoylphenoxy)-1H-pyrazol-1-yl)thiazole-4-carboxylate]
Second: NS(=O)(=O)c1ccc(Oc2c(-c3ccccc3)nn(-c3nc(C(=O)O)cs3)c2C2CCCC2)cc1 [Compound 171, 2-(5-cyclopentyl-3-phenyl-4-(4-sulfamoylphenoxy)-1H-pyrazol-1-yl)thiazole-4-carboxylic acid]
The IC50 of the first is higher: 1 to 57 µM for the first, 0.1 to 1 µM for the second. The second is the more potent here.

`NS(=O)(=O)c1ccc(Oc2c(C3CC3)nn(-c3nc(C(=O)O)cs3)c2-c2ccccc2)cc1` [Compound 165] and `NS(=O)(=O)c1ccc(Oc2c(C3CCCC3)nn(-c3nc(C(=O)O)cs3)c2-c2ccccc2)cc1` [Compound 170, 2-(3-cyclopentyl-5-phenyl-4-(4-sulfamoylphenoxy)-1H-pyrazol-1-yl)thiazole-4-carboxylic acid] fall in the same range of IC50: 1 to 57 µM for the first, 1 to 57 µM for the second.

`NS(=O)(=O)c1ccc(Oc2c(C3CCCCC3)nn(-c3nc(C(=O)O)cs3)c2-c2ccccc2)cc1` [Compound 172, 2-(3-cyclohexyl-5-phenyl-4-(4-sulfamoylphenoxy)-1H-pyrazol-1-yl)thiazole-4-carboxylic acid] and `NS(=O)(=O)c1ccc(Oc2c(-c3ccccc3)nn(-c3nc(C(=O)O)cs3)c2C2CCCCC2)cc1` [Compound 173, 2-(5-cyclohexyl-3-phenyl-4-(4-sulfamoylphenoxy)-1H-pyrazol-1-yl)thiazole-4-carboxylic acid] fall in the same range of IC50: 1 to 57 µM for the first, 1 to 57 µM for the second.

Compared with `NS(=O)(=O)c1ccc(Cc2c(-c3ccccc3)nn(-c3nc(C(=O)O)cs3)c2C2CCCC2)cc1` [Compound 175, 2-(5-cyclopentyl-3-phenyl-4-(4-sulfamoylbenzyl)-1H-pyrazol-1-yl)thiazole-4-carboxylic acid], `NS(=O)(=O)c1ccc(Cc2c(-c3ccccc3)nn(-c3nc(C(=O)O)cs3)c2C2CCCCC2)cc1` [Compound 177, 2-(5-cyclohexyl-3-phenyl-4-(4-sulfamoylbenzyl)-1H-pyrazol-1-yl)thiazole-4-carboxylic acid] is higher in IC50: 0.1 to 1 µM for the first, 1 to 57 µM for the second.

`NS(=O)(=O)c1ccc(Cc2c(C3CCCCC3)nn(-c3nc(C(=O)O)cs3)c2-c2ccccc2)cc1` [Compound 176, 2-(3-cyclohexyl-5-phenyl-4-(4-sulfamoylbenzyl)-1H-pyrazol-1-yl)thiazole-4-carboxylic acid] and `NS(=O)(=O)c1ccc(Cc2c(C3CC3)nn(-c3nc(C(=O)O)cs3)c2-c2cccc(-c3ccccc3)c2)c(F)c1` [Compound 182] fall in the same range of IC50: 1 to 57 µM for the first, 1 to 57 µM for the second.

First: NS(=O)(=O)c1ccc(Cc2c(-c3ccccc3)nn(-c3nc(C(=O)O)cs3)c2C#Cc2ccccc2)cc1 [Compound 179, 2-(3-phenyl-5-(phenylethynyl)-4-(4-sulfamoylbenzyl)-1H-pyrazol-1-yl)thiazole-4-carboxylic acid]
Second: NS(=O)(=O)c1ccc(Cc2c(-c3ccccc3)nn(-c3nc(C(=O)O)cs3)c2Cc2ccccc2)cc1 [Compound 185, 2-(5-benzyl-3-phenyl-4-(4-sulfamoylbenzyl)-1H-pyrazol-1-yl)thiazole-4-carboxylic acid]
The IC50 of the first is higher: 1 to 57 µM for the first, 0.1 to 1 µM for the second. The second is the more potent here.
